# ChEMBL document CHEMBL3734728, “2,30-Bis(10H-indole) heterocycles: New p53/MDM2/MDMX antagonists” (Bioorg Med Chem Lett, 2015)
# Legend:
# [1] = molecular target: T1, Protein Mdm4 (Homo sapiens, UniProt O15151)
# T1 sequence (O15151 whole entry): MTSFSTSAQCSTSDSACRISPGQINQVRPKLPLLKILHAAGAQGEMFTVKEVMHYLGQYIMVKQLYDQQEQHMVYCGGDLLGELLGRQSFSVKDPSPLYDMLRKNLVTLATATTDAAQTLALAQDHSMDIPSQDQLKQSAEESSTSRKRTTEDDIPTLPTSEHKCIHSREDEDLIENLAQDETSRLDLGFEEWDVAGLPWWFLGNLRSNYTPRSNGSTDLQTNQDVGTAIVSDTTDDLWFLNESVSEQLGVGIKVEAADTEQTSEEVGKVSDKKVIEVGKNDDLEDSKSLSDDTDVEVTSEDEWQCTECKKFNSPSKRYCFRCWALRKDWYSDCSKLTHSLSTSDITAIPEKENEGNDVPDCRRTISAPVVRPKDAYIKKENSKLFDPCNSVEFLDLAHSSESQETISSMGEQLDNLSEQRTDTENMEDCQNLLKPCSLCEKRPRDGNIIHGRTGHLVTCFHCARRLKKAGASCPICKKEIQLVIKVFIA
# [2] = Lipophilicity, logP of the compound; format: physicochemical; conditions: octanol/water
# [3] = molecular target: E3 ubiquitin-protein ligase Mdm2 (Homo sapiens, UniProt Q00987)
# Chain of E3 ubiquitin-protein ligase Mdm2 (Q00987 whole entry): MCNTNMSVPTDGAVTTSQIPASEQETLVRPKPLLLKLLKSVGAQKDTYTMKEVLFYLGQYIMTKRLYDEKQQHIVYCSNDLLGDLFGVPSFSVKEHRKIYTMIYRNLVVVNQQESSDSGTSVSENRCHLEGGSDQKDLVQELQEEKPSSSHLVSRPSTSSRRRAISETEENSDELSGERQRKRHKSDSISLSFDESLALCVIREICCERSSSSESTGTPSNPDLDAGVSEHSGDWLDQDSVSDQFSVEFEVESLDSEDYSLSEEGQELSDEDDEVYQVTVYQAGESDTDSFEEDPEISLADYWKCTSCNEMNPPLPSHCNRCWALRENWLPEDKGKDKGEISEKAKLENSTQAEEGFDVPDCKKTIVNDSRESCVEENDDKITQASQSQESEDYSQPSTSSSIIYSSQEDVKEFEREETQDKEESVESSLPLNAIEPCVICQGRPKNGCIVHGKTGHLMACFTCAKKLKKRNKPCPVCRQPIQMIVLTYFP
logP [2],SMILES,Ki [1] [µM],Ki [3] [µM]
7.38,O=C(O)c1[nH]c2cc(Cl)ccc2c1-c1c(-c2ccc(F)cc2)c2ccccc2n1Cc1ccc(Cl)cc1,–,–
6.4,O=C(NCCN1CCOCC1)c1[nH]c2cc(Cl)ccc2c1-c1c(-c2ccccc2)c2ccccc2n1Cc1ccc(Cl)cc1,–,–
7.82,CCOC(=O)c1[nH]c2cc(Cl)ccc2c1-c1c(-c2ccccc2)c2ccccc2n1Cc1ccc(Cl)cc1,–,–
7.61,Clc1ccc(Cn2c(-c3c[nH]c4cc(Cl)ccc34)c(-c3ccccc3)c3ccccc32)cc1,–,–
7.98,CCOC(=O)c1[nH]c2cc(Cl)ccc2c1-c1c(-c2ccc(F)cc2)c2ccccc2n1Cc1ccc(Cl)cc1,–,–
7.22,O=C(O)c1[nH]c2cc(Cl)ccc2c1-c1c(-c2ccccc2)c2ccccc2n1Cc1ccc(Cl)cc1,–,–

SMILES,logP [2],Ki [1] [µM],Ki [3] [µM]
CCOC(=O)c1[nH]c2cc(Cl)ccc2c1-c1c(-c2ccc(Cl)cc2)c2ccccc2n1Cc1ccc(Cl)cc1,8.38,> 60,> 22
